Experimental data: ChEMBL document CHEMBL4308841, “Synthesis, in vitro antiproliferative activity, and kinase inhibitory effects of pyrazole-containing diarylureas and diarylamides” (Eur J Med Chem, 2018)

How the values were obtained:
[1] = test system: SF-268; experiment: Growth inhibition of human SF268 cells assessed as cell growth at 0.1 uM incubated for 48 hrs by sulforhodamine B assay relative to control; assay type: functional; details: SF-268, 48 h, read-out: Activity
[2] = test system: A498; experiment: Growth inhibition of human A498 cells assessed as cell growth at 1 uM incubated for 48 hrs by sulforhodamine B assay relative to control; assay type: functional; details: A498, 48 h, read-out: Activity
[3] = test system: LOX IMVI; experiment: Growth inhibition of human LOXIMVI cells assessed as cell growth at 1 uM incubated for 48 hrs by sulforhodamine B assay relative to control; assay type: functional; details: read-out: Activity
[4] = test system: K562; experiment: Growth inhibition of human K562 cells assessed as cell growth at 1 uM incubated for 48 hrs by sulforhodamine B assay relative to control; assay type: functional; details: K562, 48 h, read-out: Activity
[5] = test system: MDA-MB-231; experiment: Growth inhibition of human MDA-MB-231 cells assessed as cell growth at 0.1 uM incubated for 48 hrs by sulforhodamine B assay relative to control; assay type: functional; details: MDA-MB-231, 48 h, read-out: Activity
[6] = test system: NCI-H226; experiment: Growth inhibition of human NCI-H226 cells assessed as cell growth at 1 uM incubated for 48 hrs by sulforhodamine B assay relative to control; assay type: functional; details: NCI-H226, 48 h, read-out: Activity
[7] = test system: K562; experiment: Growth inhibition of human K562 cells incubated for 48 hrs by sulforhodamine B assay; assay type: functional, cell-based; details: K562, 48 h
[8] = test system: KM12; experiment: Growth inhibition of human KM12 cells assessed as cell growth at 1 uM incubated for 48 hrs by sulforhodamine B assay relative to control; assay type: functional; details: KM12, 48 h, read-out: Activity
[9] = test system: SR; experiment: Growth inhibition of human SR cells assessed as cell growth at 100 uM incubated for 48 hrs by sulforhodamine B assay relative to control; assay type: functional; details: read-out: Activity
[10] = test system: SK-MEL-5; experiment: Growth inhibition of human SK-MEL-5 cells assessed as cell growth at 0.01 uM incubated for 48 hrs by sulforhodamine B assay relative to control; assay type: functional; details: SK-MEL-5, 48 h, read-out: Activity
[11] = test system: SK-OV-3; experiment: Growth inhibition of human SKOV3 cells assessed as cell growth at 1 uM incubated for 48 hrs by sulforhodamine B assay relative to control; assay type: functional; details: SK-OV-3, 48 h, read-out: Activity
[12] = test system: MDA-MB-231; experiment: Growth inhibition of human MDA-MB-231 cells assessed as cell growth at 1 uM incubated for 48 hrs by sulforhodamine B assay relative to control; assay type: functional; details: MDA-MB-231, 48 h, read-out: Activity
[13] = test system: PC-3; experiment: Growth inhibition of human PC3 cells incubated for 48 hrs by sulforhodamine B assay; assay type: functional, cell-based; details: PC-3, 48 h
[14] = test system: Malme-3M; experiment: Growth inhibition of human MALME-3M cells assessed as cell growth at 100 uM incubated for 48 hrs by sulforhodamine B assay relative to control; assay type: functional; details: read-out: Activity
[15] = test system: OVCAR-4; experiment: Growth inhibition of human OVCAR4 cells assessed as cell growth at 0.1 uM incubated for 48 hrs by sulforhodamine B assay relative to control; assay type: functional; details: OVCAR-4, 48 h, read-out: Activity
[16] = test system: NCI-H23; experiment: Growth inhibition of human NCI-H23 cells assessed as cell growth at 0.01 uM incubated for 48 hrs by sulforhodamine B assay relative to control; assay type: functional; details: NCI-H23, 48 h, read-out: Activity
[17] = test system: A549; experiment: Growth inhibition of human A549/ATCC cells assessed as cell growth at 0.01 uM incubated for 48 hrs by sulforhodamine B assay relative to control; assay type: functional; details: A549, 48 h, read-out: Activity
[18] = test system: PC-3; experiment: Growth inhibition of human PC3 cells assessed as cell growth at 0.01 uM incubated for 48 hrs by sulforhodamine B assay relative to control; assay type: functional; details: PC-3, 48 h, read-out: Activity
[19] = test system: A498; experiment: Growth inhibition of human A498 cells incubated for 48 hrs by sulforhodamine B assay; assay type: functional, cell-based; details: A498, 48 h
[20] = test system: OVCAR-4; experiment: Growth inhibition of human OVCAR4 cells assessed as cell growth at 1 uM incubated for 48 hrs by sulforhodamine B assay relative to control; assay type: functional; details: OVCAR-4, 48 h, read-out: Activity
[21] = test system: HOP-62; experiment: Growth inhibition of human HOP62 cells assessed as cell growth at 0.01 uM incubated for 48 hrs by sulforhodamine B assay relative to control; assay type: functional; details: HOP-62, 48 h, read-out: Activity
[22] = test system: SR; experiment: Growth inhibition of human SR cells assessed as cell growth at 0.01 uM incubated for 48 hrs by sulforhodamine B assay relative to control; assay type: functional; details: read-out: Activity
[23] = test system: ACHN; experiment: Growth inhibition of human ACHN cells assessed as cell growth at 0.01 uM incubated for 48 hrs by sulforhodamine B assay relative to control; assay type: functional; details: read-out: Activity
[24] = test system: HOP-62; experiment: Growth inhibition of human HOP62 cells incubated for 48 hrs by sulforhodamine B assay; assay type: functional, cell-based; details: HOP-62, 48 h
[25] = test system: OVCAR-8; experiment: Growth inhibition of human OVCAR8 cells assessed as cell growth at 100 uM incubated for 48 hrs by sulforhodamine B assay relative to control; assay type: functional; details: OVCAR-8, 48 h, read-out: Activity
[26] = test system: OVCAR-5; experiment: Growth inhibition of human OVCAR5 cells assessed as cell growth at 100 uM incubated for 48 hrs by sulforhodamine B assay relative to control; assay type: functional; details: OVCAR-5, 48 h, read-out: Activity
[27] = test system: HT-29; experiment: Growth inhibition of human HT-29 cells assessed as cell growth at 0.1 uM incubated for 48 hrs by sulforhodamine B assay relative to control; assay type: functional; details: HT-29, 48 h, read-out: Activity
[28] = test system: A549; experiment: Growth inhibition of human A549/ATCC cells assessed as cell growth at 100 uM incubated for 48 hrs by sulforhodamine B assay relative to control; assay type: functional; details: A549, 48 h, read-out: Activity
[29] = test system: HT-29; experiment: Growth inhibition of human HT-29 cells incubated for 48 hrs by sulforhodamine B assay; assay type: functional, cell-based; details: HT-29, 48 h
[30] = test system: SN12C; experiment: Growth inhibition of human SN12C cells assessed as cell growth at 0.01 uM incubated for 48 hrs by sulforhodamine B assay relative to control; assay type: functional; details: read-out: Activity
[31] = test system: OVCAR-3; experiment: Growth inhibition of human OVCAR3 cells assessed as cell growth at 100 uM incubated for 48 hrs by sulforhodamine B assay relative to control; assay type: functional; details: OVCAR-3, 48 h, read-out: Activity
[32] = read-out: LC50 (the source's name)
[33] = read-out: pLC50 (the source's name) (converted)

For COc1cc(Cl)cc(-c2nn(-c3cccc(NC(=O)Nc4ccc(Cl)c(Cl)c4)c3)cc2-c2ccncc2)c1, which growth at 0.1 µM [1] is on record?
Its growth at 0.1 µM is 95%.

And the growth at 1 µM [2]?
The growth at 1 µM was 73%.

And the growth at 1 µM [3]?
Its growth at 1 µM is 91%.

What about the growth at 1 µM [4] of the same molecule?
Its growth at 1 µM is 67%.

And the growth at 0.1 µM [5]?
Its growth at 0.1 µM is 96%.

What about the growth at 1 µM [6] of the same molecule?
The growth at 1 µM was 82%.

What about the GI50 ([7]; read-out: GI50) of the same molecule?
Its GI50 is 1 µM.

And the LC50 ([7]; read-out: LC50)?
The LC50 was over 100 µM.

What about the TGI ([7]; read-out: TGI) of the same molecule?
Its TGI is over 100 µM.

And the GI50 ([7]; read-out: pGI50 (converted))?
The GI50 was 1.95 µM.

And the LC50 ([7]; read-out: pLC50 (converted))?
The LC50 was over 100 µM.

What about the TGI ([7]; read-out: pTGI (converted)) of the same molecule?
Its TGI is over 100 µM.

What about the growth at 1 µM [8] of the same molecule?
The growth at 1 µM was 72%.

And the growth at 100 µM [9]?
The growth at 100 µM was -26%.

And the growth at 0.01 µM [10]?
The growth at 0.01 µM was 95%.

And the growth at 1 µM [11]?
Its growth at 1 µM is 100%.

And the growth at 1 µM [12]?
Its growth at 1 µM is 85%.

And the IC50 [13]?
Its IC50 is 1.13 µM.

What about the GI50 ([13]; read-out: GI50) of the same molecule?
Its GI50 is 1.13 µM.

What about the CC50 [13, 32] of the same molecule?
Its CC50 is over 100 µM.

And the TGI ([13]; read-out: TGI)?
The TGI was 52.5 µM.

And the GI50 ([13]; read-out: pGI50 (converted))?
The GI50 was 1.12 µM.

What about the CC50 [13, 33] of the same molecule?
The CC50 was over 100 µM.

What about the TGI ([13]; read-out: pTGI (converted)) of the same molecule?
Its TGI is 5.25 µM.

What about the growth at 100 µM [14] of the same molecule?
The growth at 100 µM was -24%.

And the growth at 0.1 µM [15]?
Its growth at 0.1 µM is 95%.

And the growth at 0.01 µM [16]?
The growth at 0.01 µM was 93%.

And the growth at 0.01 µM [17]?
The growth at 0.01 µM was 99%.

What about the growth at 0.01 µM [18] of the same molecule?
Its growth at 0.01 µM is 96%.

And the GI50 ([19]; read-out: GI50)?
The GI50 was 2.52 µM.

What about the CC50 [19, 32] of the same molecule?
The CC50 was over 100 µM.

And the TGI ([19]; read-out: TGI)?
The TGI was 90.9 µM.

What about the GI50 ([19]; read-out: pGI50 (converted)) of the same molecule?
The GI50 was 2.51 µM.

What about the CC50 [19, 33] of the same molecule?
The CC50 was over 100 µM.

And the TGI ([19]; read-out: pTGI (converted))?
The TGI was 91.2 µM.

And the growth at 1 µM [20]?
The growth at 1 µM was 83%.

And the growth at 0.01 µM [21]?
Its growth at 0.01 µM is 92%.

And the growth at 0.01 µM [22]?
Its growth at 0.01 µM is 94%.

And the growth at 0.01 µM [23]?
The growth at 0.01 µM was 102%.

And the GI50 ([24]; read-out: GI50)?
Its GI50 is 3.36 µM.

What about the CC50 [24, 32] of the same molecule?
Its CC50 is over 100 µM.

And the TGI ([24]; read-out: TGI)?
The TGI was 35.1 µM.

And the GI50 ([24]; read-out: pGI50 (converted))?
The GI50 was 3.39 µM.

What about the CC50 [24, 33] of the same molecule?
Its CC50 is over 100 µM.

What about the TGI ([24]; read-out: pTGI (converted)) of the same molecule?
Its TGI is 35.5 µM.

What about the growth at 100 µM [25] of the same molecule?
The growth at 100 µM was -9%.

And the growth at 100 µM [26]?
Its growth at 100 µM is 9%.

And the growth at 0.1 µM [27]?
Its growth at 0.1 µM is 91%.

And the growth at 100 µM [28]?
The growth at 100 µM was -10%.

What about the CC50 [29, 32] of the same molecule?
The CC50 was over 100 µM.

What about the GI50 ([29]; read-out: pGI50 (converted)) of the same molecule?
The GI50 was 2.4 µM.

What about the CC50 [29, 33] of the same molecule?
The CC50 was over 100 µM.

What about the TGI ([29]; read-out: pTGI (converted)) of the same molecule?
The TGI was 9.12 µM.

What about the growth at 0.01 µM [30] of the same molecule?
Its growth at 0.01 µM is 97%.

What about the growth at 100 µM [31] of the same molecule?
Its growth at 100 µM is -4%.
